Biological target: T1, delF508-CFTR-HRP (Homo sapiens, UniProt P13569, DEL508-508)
T1 construct: expressed in transfected cells
Experiment: Measurement of delF508-CFTR-HRP surface expression in CFBE41o- cells (HRP luminescence);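 for DelF508-CFTR-HRP Amax %: percent efficacy relative to a reference CFTR corrector compound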
Assay type: cell-based
Details: for Emax: CFBE41o-, read-out: DelF508-CFTR-HRP Amax %; for EC50: mean of at least two replicates
Source text: Measurement of delF508-CFTR-HRP Surface Expression in CFBE41o-Cells
This assay quantifies the cell surface expressions of the mutant CFTR channel using an extracellular HRP tag.
A cellular assay was developed to measure surface expression of horseradish peroxidase (HRP) tagged delF508-CFTR in the human bronchial epithelial immortalized CFBE41o-cell line (Phuan, P. W., et al, (2014) Molecular Pharmacology 86:42-51). Specifically, the HRP sequence was inserted into the fourth extracellular loop of delF508-CFTR and stably expressed in CFBE41o-cells. Cells were seeded in 384 well plate at a density of 5000 cells/well and incubated at 37° C. for 12 to 24 hours in medium (Gibco MEM #11095, 10% FBS, 10 mM HEPES, […], 200 μg/mL G418, 3 μg/mL Puromycin). The delF508-CFTR-HRP expression was induced with 500 ng/mL doxycycline (Sigma D-9891, dissolved in H2O and sterile filtered) in medium and the cells were incubated at 37° C. for 48 h. Old medium was removed and fresh medium was added containing 500 ng/mL doxycycline and unknown test compound at required test concentration in DMSO, not exceeding 0.5% final DMSO concentration. The highest concentration tested was 10 μM with a 10-point concentration response curve using a 3-fold dilution. After addition of compounds, the cells were incubated for 24 h at 37° C. On the final day, cells were washed four times in PBS containing 1 mM MgCl2 and 0.1 mM CaCl2. HRP-Substrate (SuperSignal ELISA Pico, Fisher #37069) 20 μl/well was added and the luminescence signal was determined (Viewlux, Perkin Elmer). Light was emitted upon addition of exogenous HRP-Substrate only when delF508-CFTR-HRP reached the cell surface and the HRP tag was accessible to the HRP-Substrate (note: HRP-Substrate cannot cross the lipid bilayer to reach delF508-CFTR-HRP misfolded within the cell).
The median activity for the lowest concentration of the compounds on each assay plate was calculated and this value was used to normalize the signal for each well on the respective plate. Three replicates at each concentrations for every compound were run to determine one EC50. The median value was determined and used to calculate compound activities as described below. Effective half maximal values (EC50) were calculated for each compound by performing logistic regression on measured dose-response data points using the equation: […]
where “Y” is the observed activity, “Bottom” is the lowest observed value, “Top” is the highest observed value, and the “Hill coefficient” gives the largest absolute value of the slope. The curve fitting is carried out by a curve fitting program implemented at GNF using Matlab (Mathworks). The dose response curves also were used to calculate Fold Change (FC) using the equation: […]
Compound efficacy relative to the reference compound 3-(6-(1-(2,2-difluorobenzo[d][1,3]dioxol-5-yl)cyclopropane-1-carboxamido)-3-methylpyridin-2-yl)benzoic acid was determined using the following formula: […]

T1 sequence (P13569 with tags, fused parts or gaps DEL508-508): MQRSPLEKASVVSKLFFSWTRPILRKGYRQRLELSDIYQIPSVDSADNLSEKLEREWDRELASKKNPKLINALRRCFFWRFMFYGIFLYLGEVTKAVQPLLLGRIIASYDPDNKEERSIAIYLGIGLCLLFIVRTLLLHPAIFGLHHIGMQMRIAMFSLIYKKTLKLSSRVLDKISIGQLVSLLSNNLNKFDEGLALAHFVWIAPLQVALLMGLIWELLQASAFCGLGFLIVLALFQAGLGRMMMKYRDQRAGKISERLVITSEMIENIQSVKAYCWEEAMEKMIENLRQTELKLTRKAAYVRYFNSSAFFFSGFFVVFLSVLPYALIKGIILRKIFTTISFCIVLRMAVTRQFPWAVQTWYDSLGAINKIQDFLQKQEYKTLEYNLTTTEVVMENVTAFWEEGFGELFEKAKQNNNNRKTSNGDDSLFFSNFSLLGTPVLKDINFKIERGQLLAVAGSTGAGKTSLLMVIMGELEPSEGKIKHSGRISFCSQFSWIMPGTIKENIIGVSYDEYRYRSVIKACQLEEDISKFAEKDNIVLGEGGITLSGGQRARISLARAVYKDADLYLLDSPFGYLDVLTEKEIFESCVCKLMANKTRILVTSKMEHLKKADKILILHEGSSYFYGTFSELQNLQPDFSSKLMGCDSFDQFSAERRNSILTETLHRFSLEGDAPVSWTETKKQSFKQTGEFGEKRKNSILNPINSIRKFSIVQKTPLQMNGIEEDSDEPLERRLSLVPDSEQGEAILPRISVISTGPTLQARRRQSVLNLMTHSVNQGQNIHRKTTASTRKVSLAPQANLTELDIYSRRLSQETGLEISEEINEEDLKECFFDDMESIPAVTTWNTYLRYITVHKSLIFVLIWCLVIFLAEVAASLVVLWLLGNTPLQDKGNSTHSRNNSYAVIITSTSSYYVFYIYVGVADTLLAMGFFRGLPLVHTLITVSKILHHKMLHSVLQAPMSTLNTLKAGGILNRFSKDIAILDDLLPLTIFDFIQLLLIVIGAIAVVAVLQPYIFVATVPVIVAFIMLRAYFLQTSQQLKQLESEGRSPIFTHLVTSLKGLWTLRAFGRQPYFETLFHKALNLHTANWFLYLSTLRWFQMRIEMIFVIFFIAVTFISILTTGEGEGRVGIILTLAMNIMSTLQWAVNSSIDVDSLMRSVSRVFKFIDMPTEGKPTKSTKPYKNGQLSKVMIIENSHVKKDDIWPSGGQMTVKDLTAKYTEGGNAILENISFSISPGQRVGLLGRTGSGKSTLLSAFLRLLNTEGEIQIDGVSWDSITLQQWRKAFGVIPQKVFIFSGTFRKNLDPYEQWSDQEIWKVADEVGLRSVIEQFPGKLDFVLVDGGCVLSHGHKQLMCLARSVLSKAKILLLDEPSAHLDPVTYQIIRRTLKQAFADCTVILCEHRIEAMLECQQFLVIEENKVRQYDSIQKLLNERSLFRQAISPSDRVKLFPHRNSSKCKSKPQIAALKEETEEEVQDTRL

Row | Emax [%] | EC50 [nM] | SMILES
1 | 376 | 2060 | O=C(NS(=O)(=O)c1cccc(N2CC[C@H](O)C2)n1)C1(Oc2cc(Cl)ccc2-c2ccc3ccoc3c2)CC1 [Example 5-4, (S)-1-(2-(Benzofuran-6-yl)-5-chlorophenoxy)-N-((6-(3-hydroxypyrrolidin-1-yl)pyridin-2-yl)sulfonyl)cyclopropane-1-carboxamide]
2 | 513 | 2080 | Cc1ccc(-c2cc(C(F)(F)F)ccn2)c(OC2(C(=O)NS(=O)(=O)c3cccc(N4CC[C@H](O)C4)n3)CC2)c1 [Example 5-13, (S)—N-((6-(3-Hydroxypyrrolidin-1-yl)pyridin-2-yl)sulfonyl)-1-(5-methyl-2-(4-(trifluoromethyl)pyridin-2-yl)phenoxy)cyclopropane-1-carboxamide]
3 | 119 | 4610 | Cc1ccc(C2CCCCC2)c(OC2(C(=O)NS(=O)(=O)c3cccc(N4CCCC(N)C4)n3)CC2)c1 (stereo not shown) [Example 2-13, N-((6-(3-Aminopiperidin-1-yl)pyridin-2-yl)sulfonyl)-1-(2-cyclohexyl-5-methylphenoxy)cyclopropanecarboxamide]
4 | 176 | 1290 | CC1CC(C)CN(c2ccc(Cl)cc2OC2(C(=O)NS(=O)(=O)c3cccc(N4CC[C@H](O)C4)n3)CC2)C1 (stereo partly drawn) [Example 9-17, 1-(5-Chloro-2-(3,5-dimethylpiperidin-1-yl)phenoxy)-N-((6-((S)-3-hydroxypyrrolidin-1-yl)pyridin-2-yl)sulfonyl)cyclopropanecarboxamide]
5 | 382 | 880 | C[C@@]1(O)CCN(c2cccc(S(=O)(=O)NC(=O)C3(Oc4cc(Cl)ccc4C4CC5(CCC5)C4)CC3)n2)C1 (single isomer, unassigned) [Example 7-2-2]
6 | 556 | 1120 | Cc1ccc(C2CCCCC2)c(OC2(C(=O)NS(=O)(=O)c3cccc(N4CCC(NC(=O)OC(C)(C)C)CC4)n3)CC2)c1 [Example 2-43, Tert-butyl (1-(6-(N-(1-(2-cyclohexyl-5-methylphenoxy)cyclopropanecarbonyl)sulfamoyl)pyridin-2-yl)piperidin-4-yl)carbamate]
7 | 693 | 1510 | CC1(C)CCN(c2ccc(Cl)cc2OC2(C(=O)NS(=O)(=O)c3cccc(N4CC5CCC(C4)O5)n3)CC2)CC1 [Example 9-40, N-((6-(8-Oxa-3-azabicyclo[3.2.1]octan-3-yl)pyridin-2-yl)sulfonyl)-1-(5-chloro-2-(4,4-dimethylpiperidin-1-yl)phenoxy)cyclopropane-1-carboxamide]
8 | 268 | 460 | CC1(C)CCN(c2ccc(Cl)cc2OC2(C(=O)NS(=O)(=O)c3cccc(N4CCC(O)(C(F)(F)F)CC4)n3)CC2)CC1 [Example 10-9, 1-(5-chloro-2-(4,4-dimethylpiperidin-1-yl)phenoxy)-N-((6-(4-hydroxy-4-(trifluoromethyl)piperidin-1-yl)pyridin-2-yl)sulfonyl)cyclopropanecarboxamide]
9 | 626 | 1090 | Cc1ccc(C2CC3(CCC3)C2)c(OC2(C(=O)NS(=O)(=O)c3cccc(N4CC[C@H](O)C4)n3)CC2)c1 [Example 4-19, (S)-N-((6-(3-Hydroxypyrrolidin-1-yl)pyridin-2-yl)sulfonyl)-1-(5-methyl-2-(spiro[3.3]heptan-2-yl)phenoxy)cyclopropane-1-carboxamide]
10 | 547 | 530 | CC1(C)CCN(c2ccc(Cl)cc2OC2(C(=O)NS(=O)(=O)c3cccc(N4CC[C@](C)(O)C4)n3)CC2)CC1 [Example 10-1, (S)-1-(5-chloro-2-(4,4-dimethylpiperidin-1-yl)phenoxy)-N-((6-(3-hydroxy-3-methylpyrrolidin-1-yl)pyridin-2-yl)sulfonyl)cyclopropanecarboxamide]
11 | 204 | 2470 | O=C(NS(=O)(=O)c1cccc(N2CC[C@H](O)C2)n1)C1(Oc2cc(Cl)ccc2-c2ccc3occc3c2)CC1 [Example 5-12, (S)-1-(2-(Benzofuran-5-yl)-5-chlorophenoxy)-N-((6-(3-hydroxypyrrolidin-1-yl)pyridin-2-yl)sulfonyl)cyclopropane-1-carboxamide]

— US20220033407A1, “N-(pyridin-2-ylsulfonyl)cyclopropanecarboxamide Derivatives and their Use in the Treatment of Disease” (NOVARTIS AG, priority 2018, published 2022)
